Assay results as given in US20230218631A1 (priority 2020, published 2023).

System: EHMT2/G9A, H3K9me2
[1] = 4-week CIE vs Air, same animals, FIG. 1C

Compound: CCO [ethanol]
- EHMT2/G9A in dorsal striatum [1]: no changes
- H3K9me2 in dorsal striatum [1]: no changes
- reduction of H3K9me2 levels in NAc (4-week CIE vs Air, FIG. 1B): ~40%
- total histone H3 protein in NAc (4-week CIE vs Air, FIG. 1B): no changes
- reduction in NAc EHMT2/G9A protein levels (4 weeks CIE vs Air, immunoblot, FIG. 1B): > 30%
